14 substances from article PMC3673938, “Two Distinct Calmodulin Binding Sites in the Third Intracellular Loop and Carboxyl Tail of Angiotensin II (AT1A) Receptor” (PLoS ONE, 2013) can be followed below.

For assay [1], the system named is purified bovine brain CaM. Put plainly: GST-fusion protein pull-down with purified bovine brain CaM. The class given is binding. The conditions noted are these: for relative binding efficiency for CaM / interaction with purified CaM (pull-down, in words): 50 pmol GST-fusion protein; for relative binding efficiency for CaM: purified bovine brain CaM, 100 mM Tris-HCl pH 7.5, 0.1 mM CaCl2, immunoblot density ratio, 5 independent experiments; for relative binding efficiency for CaM versus wild type (in words): GST pull-down with fixed concentrations, data not shown; for interaction with purified CaM (pull-down, in words): 50 pmol purified bovine CaM, 100 mM Tris-HCl pH 7.5, Ca2+ dependent (0.1 mM CaCl2 vs 1 mM EGTA), repeated five times. The procedure:
(§1) GST-fusion proteins were expressed in E. coli BL21 strain cells, and purified by affinity chromatography using immobilized glutathione sepharose 4B beads. Proteins were eluted by reduced glutathione in 50 mM Tris-HCl buffer (pH 8.0), and then concentrated with Centricon filters with 3 kDa MW cut-off. The eluted proteins were either used immediately or stored at −80°C for future use. For GST-fusion protein pull-down assays, fusion proteins were incubated with either cell lysates or purified protein(s) at 4°C for 3 hours, following which glutathione-sepharose 4B beads were added and incubation continued at 4°C for 1 hour. The beads were then recovered by brief centrifugation, followed by 4 washes with the corresponding incubation buffer. The fusion proteins and the proteins to which they were bound were then separated by SDS-PAGE, and identified by staining with Coomassie blue or by immunoblot.
Figure 1 Interactions of the i3 loop and carboxyl tail of the AT1A receptor with CaM. A, Construction of GST-fusion proteins. Upper panel illustrates a schematic structure of the AT1A receptor and constructs of GST-fusion proteins of the i3 loop and carboxyl tail of the receptor. The numbers represent positions of amino acids in the receptor. The GST-fusion proteins were constructed, expressed in E. coli, purified by using gluthathione-sepharose 4B beads, separated by SDS-PAGE, and stained by Coomassie blue (lower panel). B. Interactions of the i3 loop or carboxyl tail of AT1A receptor with CaM in rat brain lysates (upper panel) and with purified bovine brain CaM (lower panel). 50 pmol of GST-fusion proteins were incubated with 500 µg of rat brain lysates in 250 µl of buffer containing 20 mM Tris-HCl, 70 mM NaCl, pH 7.5 with 1 mM EGTA or 0.1 mM CaCl2. Interacting protein complexes were pulled down by gluthathione-sepharose 4B beads, and visualized by immunoblot with a specific anti-CaM antibody. The same methods were applied to interactions with pure bovine CaM (50 pmol), except that the buffer contained 100 mM Tris-HCl (pH 7.5). These experiments were repeated five times with similar results.
Figure 3 CaM binding sites in the i3 loop and carboxyl tail of the AT1A receptor. A, Schematic representation of constructs of GST-fusion proteins. Four GST-fusion proteins containing truncated peptides in the i3 loop and carboxyl tail of the receptor were constructed, including GST-N-terminus of the i3 loop (GST-ATi3N), GST-C-terminus of the i3 loop (GST-ATi3C), GST-N-terminus of carboxyl tail (GST-ATctN) and GST-C-terminus of carboxyl tail (GST-ATctC). The numbers under the first or the last residues represent amino acid positions in the receptor. B, Interaction of GST-fusion proteins with CaM. The GST-fusion proteins (50 pmol) were incubated with purified bovine CaM (50 pmol) in 250 µl of buffer containing 100 mM Tris-HCl (pH 7.5) with 0.1 mM CaCl2. Proteins were pulled down by gluthathione-sepharose 4B beads, following which immunoblots were probed with a specific anti-CaM antibody. These experiments were repeated five times with similar results.
Figure 5 Effect of point mutations in ATi3N or ATctN on their interactions with CaM. A. Modeled structures of CaM-ATi3(214–231) and CaM-ATct(302–317). The complexes of CaM and CaM binding motif in the i3 loop ATi3(214–231) or the carboxyl terminal tail ATct(302–317) of the receptor were modeled as described in Experimental Procedures. The target peptides are colored in red. […] Calcium atoms are shown as orange spheres. The N- and C- termini of CaM are also labeled. Helices and sheets in CaM are colored in green and yellow, respectively. B. Effect of point mutations at ATi3N or ATctN on their interaction with CaM. […]
For orientation: In western blotting, separated proteins are transferred to a membrane and probed.

For assay [2], the target named is T1, CaM purified from bovine brain (dansyl-CaM) (Bos taurus, UniProt P62157).
T1 construct: CaM and G protein βγ subunits purified from bovine brain; purchased Calbiochem (La Jolla, CA); host or cells: bovine brain (tissue-purified)
Put plainly: Dansyl-CaM fluorescence emission spectrum shift. Format: binding. The conditions noted are these: dansyl-CaM 106 nM, 500 nM peptide + 0.1 mM calcium, 1 hour room temperature; shifted from 521 nm (EGTA); three experiments. As for the experimental part: Dansyl-CaM was synthesized according to a standard method, [46], [47], [48]. 500 µl of CaM purified from bovine brain (2 mg/ml in a buffer containing 20 mM NH4HCO3, pH 7.4 and 1 mM CaCl2) was mixed with 1 µl of dansyl chloride (100 mg/ml in acetone) at 4°C C for 1 hour with agitation. The mixture was then applied to a Centricon 4 concentrator with 10 kDa MW cut-off to remove the unincorporated dye. Efficiencies of dansylation (0.18–0.34 mol of dansyl moiety per mol of CaM) were calculated by measurement of absorption at 320 nm using a molar extinction coefficient of 3400 M-1cm-1. For conformational studies of dansyl-CaM, fluorescence was monitored at room temperature with a SLMAminco model 8000 series 2 spectrometer (Spectronic Instruments, Rochester, NY) at an excitation wavelength of 340 nm, and emission wavelengths from 425 to 600 nm.
Figure 4 CaM binding motifs in the i3 loop and carboxyl terminal tail of the AT1A receptor. A, Alignment of CaM binding motifs. […] Fluorescence emission spectra of dansyl-CaM (106 nM) at an emission wavelength of 425–600 nm were measured in the presence of 10 mM EGTA, 0.1 mM calcium, 500 nM ATi3 (214–231) +0.1 mM calcium, and 500 nM ATct (302–317) +0.1 mM calcium. […] Spectra were corrected for background buffer fluorescence. […]

For assay [3], the system named is G protein βγ subunits. Put plainly: GST-fusion protein pull-down of G protein βγ subunits, with or without CaM. Format: binding, bovine. As to conditions: 2 pmol GST-fusion protein, 2 pmol Gβγ, CaM pre-incubated 30 minutes, 20 mM Tris-HCl, 70 mM NaCl, 0.1 mM CaCl2, pH 7.5; 4 or 5 experiments. The procedure: as §1
Figure 7 Effect of CaM on G protein βγ subunit interaction with wild ATi3 or ATct. A. Interaction of G protein βγ subunits and ATi3 or ATct. 50 pmol of GST-ATi3(213–242) or GST-ATct(297–359) were incubated with different amounts of G protein Gβγ subunits in a buffer containing 20 mM Tris-HCl and 70 mM NaCl (pH 7.5). Interactions were assessed by GST-fusion protein pull-down assay, and blots were probed with a specific antibody against Gβ subunits (upper panel). 1 pmol of Gβγ subunit was interacted with different amounts of GST-ATi3(213–242) and GST-ATct(297–359). Interaction was assessed by immunoblot against Gβ subunits (lower panel). B. CaM inhibits the interaction between G protein Gβγ subunits and ATi3 or ATct. 2 pmol of GST-ATi3(213–242) or GST-ATct(297–359) were incubated with different concentrations of pure bovine brain CaM for 30 minutes in a buffer (20 mM Tris-HCl and 70 mM NaCl with 0.1 mM CaCl2, pH 7.5) following which 2 pmol of Gβγ subunits were added and incubated for 1 hour. GST-fusion proteins and their interacting proteins were pulled down by gluthathione-sepharose 4B beads, and subjected to immunoblot. Blots were probed with a specific antibody against Gβ subunits. The summary graph represents means ± S.E. from four independent experiments. C. Effects of CaM on the interactions between G protein βγ subunits and mutated ATi3 and ATct. The method is same as the described in the Figure 7B, except that we used mutated GST-fusion proteins, GST-ATi3(213–242)W219A, ATct(297–359)F309A, and ATct(297–359)F313A. The summary graph represents mean ± S.E. from 4 or 5 independent experiments.

Assay [4] relates to CaM in rat brain lysates. Put plainly: GST-fusion protein pull-down from rat brain lysates. The class given is binding. As to conditions: 50 pmol GST-fusion protein, 500 µg rat brain lysates, 20 mM Tris-HCl, 70 mM NaCl, pH 7.5; Ca2+ dependent; repeated five times. The procedure:
as §1
Figure 1 Interactions of the i3 loop and carboxyl tail of the AT1A receptor with CaM. A, Construction of GST-fusion proteins. Upper panel illustrates a schematic structure of the AT1A receptor and constructs of GST-fusion proteins of the i3 loop and carboxyl tail of the receptor. The numbers represent positions of amino acids in the receptor. […]

The subject of assay [5] is AT1A receptor-CaM interaction. As to the kind of experiment: BRET between AT1A receptor-eYFP and RLuc-CaM / CaM-RLuc in HEK293 cells. Format: cell-based, Human Embryonic Kidney 293 (HEK293) cells. As to conditions: 100 nM Ang II at 2, 4 and 6 minutes, compared with no Ang II. For orientation: In BRET a luciferase serves as donor, and the signal depends on an acceptor being close.
Description: We first stably transfected HEK293 cells with the AT1A receptor-eYFP vector by using lipofectamine 2000 solution according to the vendor’s (Invitrogen) instructions. […] The co-transfectants were detached with PBS buffer containing 1 mM EDTA, and distributed into 96 well plates at 10^5 cells/well (OptiPlate 96, Greiner Bio-One. Longwood, FL). Fluorescence measurements were acquired using a Victor2 multilabel plate reader (Perkin Elmer Life Sciences, Shelton, CT). […] The emission of light from YFP was measured both before and after stimulation with 100 nM of Ang II.
48 hours later, the cotransfectants were washed with saline pre-warmed at 37°C and calibrated in saline in a 37°C incubator for 30 minutes. […] Control co-transfectants were treated with equal amounts of saline (vehicle).

Where no end group is shown, it is not given here.

As to “GST-ATctN(297–324)F309A: F309A mutant of GST-ATctN(297–324) ({GST}-LNPLFYGFLGKKAKKYFLQLLKYIPPKA)”, the “relative binding efficiency for CaM” value in assay [1] was 29 % of wild type.
Still for that read-out and setting: the figure for “GST-ATctN(297–324)F313A: F313A mutant of GST-ATctN(297–324) ({GST}-LNPLFYGFLGKKFKKYALQLLKYIPPKA)” is 22 % of wild type.
As for SYTLIWKALKKAYEIQKN [ATi3(214–231)], the “λmax of dansyl-CaM fluorescence emission spectrum in presence of peptide” value in assay [2] is given as 486 nm.
Take “GST-ATi3N(213–234)Y215A: Y215A mutant of GST-ATi3N(213–234) ({GST}-TSATLIWKALKKAYEIQKNKPR)”: the “relative binding efficiency for CaM versus wild type (in words)” value in assay [1] is listed as “did not have reduced binding efficiencies”.
“ATi3N (213–234): GST-N-terminus of the i3 loop, GST-TSYTLIWKALKKAYEIQKNKPR ({GST}-TSYTLIWKALKKAYEIQKNKPR)”: the “interaction with purified CaM (pull-down, in words)” value (“interaction with purified CaM” below) in assay [1] is given as “interact with purified CaM”.
Regarding “GSTATi3(213–242): GST fused to the i3 loop of AT1A receptor, GST-TSYTLIWKALKKAYEIQKNKPRNDDIFRII ({GST}-TSYTLIWKALKKAYEIQKNKPRNDDIFRII)”, the “interaction with purified CaM” value in assay [1] is recorded as “associated”. Besides, in assay [3], the “Gβγ binding to GST-fusion protein in the presence of 2 pmol of CaM” value is recorded as 77% and the “Gβγ binding to GST-fusion protein in the presence of 10 pmol of CaM” value was found to be 60%. In addition, in assay [4], the “association with CaM from rat brain lysates (pull-down, in words)” value was “associated”.
Consider “ATi3C (235–242): GST-C-terminus of the i3 loop, amino acids 235–242, peptide NDDIFRIT”, for which, in assay [1], the “interaction with purified CaM” value is reported as “no interactions with CaM”.
Consider “GST-ATi3(W219A): W219A mutant of GST-ATi3(213–242) ({GST}-TSYTLIAKALKKAYEIQKNKPRNDDIFRII)”, for which, in assay [3], the “Gβγ binding to GST-fusion protein in the presence of 2 pmol of CaM” value amounted to 95% and the “Gβγ binding to GST-fusion protein in the presence of 10 pmol of CaM” value is reported as 94%.
“ATctN (297–324): GST-N-terminus of carboxyl tail, GST-LNPLFYGFLGKKFKKYFLQLLKYIPPKA ({GST}-LNPLFYGFLGKKFKKYFLQLLKYIPPKA)”: the “interaction with purified CaM” value in assay [1] is given as “interact with purified CaM”.
In the case of “ATctC (325–359): GST-C-terminus of carboxyl tail, GST-KSHSSLSTKMSTLSYRPSDNMSSSAKKPASCFEVE ({GST}-KSHSSLSTKMSTLSYRPSDNMSSSAKKPASCFEVE)”, the “interaction with purified CaM” value in assay [1] is “no interactions with CaM”.
In the case of “GSTATi3N(213–234)W219A: W219A mutant of GST-ATi3N(213–234) ({GST}-TSYTLIAKALKKAYEIQKNKPR)”, the “relative binding efficiency for CaM” value in assay [1] is recorded as 32 % of wild type.
As to “Angiotensin II (DRVYIHPF; Angiotensin-2; UniProt P01019 25-32, looked up) [Ang II, AT1A receptor agonist]”, the “effect on magnitude of the BRET ratio of the co-transfectants” value in assay [5] is listed as “did not alter”.
Turning to “GST-ATi3N(213–234)L217A: L217A mutant of GST-ATi3N(213–234) ({GST}-TSYTAIWKALKKAYEIQKNKPR)”, the “relative binding efficiency for CaM versus wild type (in words)” value in assay [1] is given as “did not have reduced binding efficiencies”.
On the same count and under the same terms, the entry for “GST-ATctN(297–324)Y312A: Y312A mutant of GST-ATctN(297–324) ({GST}-LNPLFYGFLGKKFKKAFLQLLKYIPPKA)” is “did not have reduced binding efficiencies”.
